{"source": "patent US5134142A", "about": "“Pyrazole derivatives, and pharmaceutical composition comprising the same” (Fujisawa Pharmaceutical Co., Ltd., priority 1989, dated 1992)", "key": {"[1]": {"tested_on": "platelet aggregation induced by collagen", "assay": "Effect on platelet aggregation induced by collagen (antithrombotic activity)", "type": "cell-based", "conditions": "human platelet rich plasma, collagen 0.5 μg/ml, 37° C", "protocol": "Effect on platelet aggregation induced by collagen :\nPlatelet rich plasma (PRP) which contains 3×10^8 platelets/ml was prepared from human blood. To the 245 μl of PRP, 5 μl of drug solution* was added, and then stirred for 2 min at 37° C. To the solution 5 μl of collagen (0.5 μg/ml) was added as an aggregation inducer. Aggregation was measured by using an aggregometer (NKK HEMA-TRACER 1). Activities of inhibitors (test compounds) were expressed as IC50 values i.e. doses required to inhibit the platelet aggregation responses by 50%.\nDrug solution* - - - Test compounds were dissolved in dimethylsulfoxide."}, "[2]": {"tested_on": "Delayed Type Hypersensitivity (DTH) response to bovine type II collagen", "assay": "Effect on Delayed Type Hypersensitivity (DTH) response to bovine type II collagen", "type": "in vivo, male DBA/1 mice", "conditions": "oral, 24 hours after challenge, mice"}, "[3]": {"tested_on": "adjuvant arthritis in rats", "assay": "Effect on adjuvant arthritis in rats (antiinflammatory activity)", "type": "in vivo, female Sprague-Dawley rats", "conditions": "Rattus norvegicus, po, 552 h, orally once a day for 23 days, read-out: Inhibition of secondary lesion (uninjected paw)"}, "[4]": {"tested_on": "inflammatory hyperalgesia induced by brewer's yeast in rats", "assay": "Inflammatory hyperalgesia induced by brewer's yeast in rats (analgesic activity)", "type": "in vivo, male Sprague Dawley rats", "conditions": "oral, pain threshold 3 hours after yeast injection", "protocol": "Inflammatory hyperalgesia induced by brewer's yeast in rats : (i) Test Method : Ten male Sprague Dawley rats were used per group. 0.1 ml of 5% brewer's yeast suspended in 0.5% methylcellulose was injected into the right hind paw. The pain threshold was determined 3 hours after yeast injection, by applying pressure to the foot and reading the pressure at which the rat withdrew the foot. The drugs were given orally 2 hours after yeast injection. The pain threshold in the treated animals was compared with that in the control animals."}, "[5]": {"tested_on": "collagen induced arthritis in mice", "assay": "Effect on collagen induced arthritis in mice (anti-rheumatic activity)", "type": "in vivo, male DBA/1 mice", "conditions": "10 mg/kg, orally once a day for 3 weeks from 10 day after challenge", "protocol": "Effect on collagen induced arthritis in mice : (i) Test Method : Eight male DBA/1 mice were used per group. Type II bovine collagen was solublized in 0.1M acetic acid and emulsified in complete Freund's adjuvant (CFA . Mice were primed with 0.2 mg of Type II collagen in CFA intradermally at the base of the tail. Mice were challenged after 21 day with the same procedure. From 10 day after challenge, drug was administered orally once a day for 3 weeks and mice were inspected weekly for visual signs of arthritis. An arthritis index was used to grade limb 0-3, representing joint swelling and erythema (Grade 1), visible joint disorder (Grade 2 and detectable joint ankylosis (Grade 3)."}}}
{"molecule": "CS(=O)(=O)c1ccc(-c2cc(C#N)nn2-c2ccc(F)cc2)cc1", "note": "[Example 6, 1-(4-fluorophenyl)-5-[4-(methylsulfonyl)phenyl]pyrazole-3-carbonitrile]", "values": [{"measurement": "IC50", "setting": "[1]", "result": 5.3, "unit": "µM"}, {"measurement": "per cent inhibition of DTH response compared with vehicle control", "setting": "[2]; 0.32 mg/kg", "result": 53.4, "unit": "%"}, {"measurement": "per cent inhibition of DTH response compared with vehicle control", "setting": "[2]; 1.0 mg/kg", "result": 61.5, "unit": "%"}, {"measurement": "per cent inhibition of DTH response compared with vehicle control", "setting": "[2]; 3.2 mg/kg", "result": 74.3, "unit": "%"}, {"measurement": "inhibition in vivo at 10 mg/kg", "setting": "[3]", "result": 95.6, "unit": "%"}, {"measurement": "Relative potency (Control = 1.0)", "setting": "[4]; 32 mg/kg", "result": 1.34}, {"measurement": "Inhibition of arthritis index", "setting": "[5]", "result": 78.6, "unit": "%"}]}
{"molecule": "CS(=O)(=O)c1ccc(-c2cc(C#N)nn2-c2ccc(F)cc2F)cc1", "note": "[15-6), 1-(2,4-Difluorophenyl)-5-[4-(methylsulfonyl)phenyl]pyrazole-3-carbonitrile]", "values": [{"measurement": "inhibition in vivo at 3.2 mg/kg", "setting": "[3]", "result": 94.3, "unit": "%"}, {"measurement": "Inhibition of arthritis index", "setting": "[5]", "result": 98.9, "unit": "%"}]}
{"molecule": "CS(=O)(=O)Nc1ccc(-n2nc(C#N)cc2-c2ccc(S(C)(=O)=O)cc2)cc1", "note": "[Example 36]", "values": [{"measurement": "inhibition in vivo at 3.2 mg/kg", "setting": "[3]", "result": 84.2, "unit": "%"}]}
{"molecule": "CNc1ccc(-n2nc(C(F)(F)F)cc2-c2ccc(S(C)(=O)=O)cc2)cc1.Cl", "note": "[45-8), 1-[4-(Methylamino)phenyl]-5-[4-(methylsulfonyl)-phenyl]-3-(trifluoromethyl)pyrazole hydrochloride]", "values": [{"measurement": "inhibition in vivo at 3.2 mg/kg", "setting": "[3]", "result": 80.8, "unit": "%"}, {"measurement": "Inhibition of arthritis index", "setting": "[5]", "result": 83.5, "unit": "%"}]}
{"molecule": "CS(=O)(=O)c1ccc(-c2ccnn2-c2ccc(F)cc2)cc1", "note": "[17-1), 1-(4-Fluorophenyl)-5-[4-(methylsulfonyl)phenyl]pyrazole]", "values": [{"measurement": "inhibition in vivo at 3.2 mg/kg", "setting": "[3]", "result": 80.6, "unit": "%"}]}
{"molecule": "CS(=O)(=O)c1ccc(-c2cc(C(F)(F)F)nn2-c2ccc(F)cc2)cc1", "note": "[11-3), 1-(4-Fluorophenyl)-5-[4-(methylsulfonyl)phenyl]-3-(trifluoromethyl)pyrazole]", "values": [{"measurement": "inhibition in vivo at 10 mg/kg", "setting": "[3]", "result": 100, "unit": "%"}, {"measurement": "Relative potency (Control = 1.0)", "setting": "[4]; 32 mg/kg", "result": 1.35}, {"measurement": "Inhibition of arthritis index", "setting": "[5]", "result": 91.7, "unit": "%"}]}
{"molecule": "C[S+]([O-])c1ccc(-c2cc(C#N)nn2-c2ccc(F)cc2)cc1", "note": "(centres unmarked) [Example 24, 1-(4-fluorophenyl)-5-[4-(methylsulfinyl)phenyl]pyrazole-3-carbonitrile]", "values": [{"measurement": "per cent inhibition of DTH response compared with vehicle control", "setting": "[2]; 0.32 mg/kg", "result": 45.9, "unit": "%"}, {"measurement": "per cent inhibition of DTH response compared with vehicle control", "setting": "[2]; 1.0 mg/kg", "result": 66.9, "unit": "%"}, {"measurement": "per cent inhibition of DTH response compared with vehicle control", "setting": "[2]; 3.2 mg/kg", "result": 75.7, "unit": "%"}, {"measurement": "inhibition in vivo at 3.2 mg/kg", "setting": "[3]", "result": 80.6, "unit": "%"}, {"measurement": "Relative potency (Control = 1.0)", "setting": "[4]; 10 mg/kg", "result": 1.44}, {"measurement": "Inhibition of arthritis index", "setting": "[5]", "result": 90.5, "unit": "%"}]}
{"molecule": "C[S+]([O-])c1ccc(-c2cc(C#N)nn2-c2ccc(F)cc2F)cc1", "note": "(centres unmarked) [33-2), 1-(2,4-Difluorophenyl)-5-[4-(methylsulfinyl)phenyl]pyrazole-3-carbonitrile]", "values": [{"measurement": "inhibition in vivo at 3.2 mg/kg", "setting": "[3]", "result": 87.1, "unit": "%"}, {"measurement": "Inhibition of arthritis index", "setting": "[5]", "result": 92.4, "unit": "%"}]}
{"molecule": "CCNc1ccc(-n2nc(C#N)cc2-c2ccc(S(C)(=O)=O)cc2)cc1", "note": "[37-2), 1-[4-(Ethylamino)phenyl]-5-[4-(methylsulfonyl)phenyl]pyrazole-3-carbonitrile]", "values": [{"measurement": "inhibition in vivo at 3.2 mg/kg", "setting": "[3]", "result": 81.7, "unit": "%"}]}
{"molecule": "CC(C)Cc1ccc(C(C)C(=O)O)cc1", "note": "(centres unmarked) [Ibuprofen, reference compound]", "values": [{"measurement": "inhibition in vivo at 10 mg/kg", "setting": "[3]", "result": 24.7, "unit": "%"}]}
{"molecule": "CSc1ccc(-c2cc(C#N)nn2-c2ccc(F)cc2)cc1", "note": "[15-2), 1-(4-Fluorophenyl)-5-[4-(methylthio)phenyl]pyrazole-3-carbonitrile]", "values": [{"measurement": "per cent inhibition of DTH response compared with vehicle control", "setting": "[2]; 0.32 mg/kg", "result": 55.4, "unit": "%"}, {"measurement": "per cent inhibition of DTH response compared with vehicle control", "setting": "[2]; 1.0 mg/kg", "result": 70.9, "unit": "%"}, {"measurement": "per cent inhibition of DTH response compared with vehicle control", "setting": "[2]; 3.2 mg/kg", "result": 69.6, "unit": "%"}]}
